# Laboratory results reported in patent US20080038357A1, “Inhalation Powder Containing the CGRP antagonist BIBN4096 and Process for the Preparation Thereof” (priority 2002, published 2008).
# What was measured:
# [1] = Stability of the amorphous state of the microparticles; assay type: physicochemical; conditions: normal conditions (T<50° C., relative humidity <75%)
# [2] = conventional preparations; cited from earlier work
# [3] = Bioavailability after administration by inhalation; conditions: in vivo, inhaled or intranasal; administered by inhalation as spherically nanostructured microparticles; based on the fine fraction of the formulation (FPD, USP 24 Suppl. 2000)
smiles,measurement,setting,value
"NCCCC[C@H](NC(=O)[C@@H](Cc1cc(Br)c(O)c(Br)c1)NC(=O)N1CCC(N2Cc3ccccc3NC2=O)CC1)C(=O)N1CCN(c2ccncc2)CC1 [BIBN4096, 1-[N^2-[3,5-dibromo-N-[[4-(3,4-dihydro-2(1H)-oxoquinazolin-3-yl)-1-piperidinyl]carbonyl]-D-tyrosyl]-L-lysyl]-4-(4-pyridinyl)-piperazine]",stability of amorphous state,[1],stable in their amorphous state
same,bioavailability by oral route,[2],only limited bioavailability by oral route
same,bioavailability,[3],~60%
